One assay has as its system supercoiled pHOT1 DNA. The assay can be described thus: DNA unwinding assay. Type of assay: biochemical. As to conditions: concentration shifting topoisomers to the middle position between relaxed and supercoiled bands. Here is the method:
A 22 μl mixture of 0.25 μg of supercoiled pHOT1 DNA, 5 units of topoisomerase I in topoisomerase I buffer (provided with the kit) was incubated at 37° C. for 30 min. Two μl of various concentrations of drug was added, and the incubation was continued for another 30 min. The reactions were terminated by addition of SDS to 1%. Proteinase K was added to the reaction mixtures to ca. 50 μg/ml, and the reaction mixtures were incubated for 15-20 min at 56° C. After adding 0.1 volume of 10×gel loading buffer, the reaction mixtures were extracted with an equal volume of CIA (Chloroform:isoamyl Alcohol; 24:1). The samples were loaded on an 1% agarous gel that was cast in TPE buffer (36 mM Tris-HCl, pH 7.8, 1 mM EDTA, 30 mM NaH2PO4) and 0.2 μg/ml Chloroquine. The gel was run in TPE buffer at room temperature at 10 volts for 20 h, destained in water for 15 min, stained in 0.05 μg/ml ethidium bromide for 15 min, and destained again in water for 15 min. The gel was then photographed, scanned by FluoroImager, and analyzed by ImageQuaNT software (Molecular Dynamics).

For another assay, the target named is T1, human topoisomerase II (Homo sapiens, UniProt P11388).
T1 construct: purchased TopoGEN, Inc
T1 sequence (P11388 whole entry): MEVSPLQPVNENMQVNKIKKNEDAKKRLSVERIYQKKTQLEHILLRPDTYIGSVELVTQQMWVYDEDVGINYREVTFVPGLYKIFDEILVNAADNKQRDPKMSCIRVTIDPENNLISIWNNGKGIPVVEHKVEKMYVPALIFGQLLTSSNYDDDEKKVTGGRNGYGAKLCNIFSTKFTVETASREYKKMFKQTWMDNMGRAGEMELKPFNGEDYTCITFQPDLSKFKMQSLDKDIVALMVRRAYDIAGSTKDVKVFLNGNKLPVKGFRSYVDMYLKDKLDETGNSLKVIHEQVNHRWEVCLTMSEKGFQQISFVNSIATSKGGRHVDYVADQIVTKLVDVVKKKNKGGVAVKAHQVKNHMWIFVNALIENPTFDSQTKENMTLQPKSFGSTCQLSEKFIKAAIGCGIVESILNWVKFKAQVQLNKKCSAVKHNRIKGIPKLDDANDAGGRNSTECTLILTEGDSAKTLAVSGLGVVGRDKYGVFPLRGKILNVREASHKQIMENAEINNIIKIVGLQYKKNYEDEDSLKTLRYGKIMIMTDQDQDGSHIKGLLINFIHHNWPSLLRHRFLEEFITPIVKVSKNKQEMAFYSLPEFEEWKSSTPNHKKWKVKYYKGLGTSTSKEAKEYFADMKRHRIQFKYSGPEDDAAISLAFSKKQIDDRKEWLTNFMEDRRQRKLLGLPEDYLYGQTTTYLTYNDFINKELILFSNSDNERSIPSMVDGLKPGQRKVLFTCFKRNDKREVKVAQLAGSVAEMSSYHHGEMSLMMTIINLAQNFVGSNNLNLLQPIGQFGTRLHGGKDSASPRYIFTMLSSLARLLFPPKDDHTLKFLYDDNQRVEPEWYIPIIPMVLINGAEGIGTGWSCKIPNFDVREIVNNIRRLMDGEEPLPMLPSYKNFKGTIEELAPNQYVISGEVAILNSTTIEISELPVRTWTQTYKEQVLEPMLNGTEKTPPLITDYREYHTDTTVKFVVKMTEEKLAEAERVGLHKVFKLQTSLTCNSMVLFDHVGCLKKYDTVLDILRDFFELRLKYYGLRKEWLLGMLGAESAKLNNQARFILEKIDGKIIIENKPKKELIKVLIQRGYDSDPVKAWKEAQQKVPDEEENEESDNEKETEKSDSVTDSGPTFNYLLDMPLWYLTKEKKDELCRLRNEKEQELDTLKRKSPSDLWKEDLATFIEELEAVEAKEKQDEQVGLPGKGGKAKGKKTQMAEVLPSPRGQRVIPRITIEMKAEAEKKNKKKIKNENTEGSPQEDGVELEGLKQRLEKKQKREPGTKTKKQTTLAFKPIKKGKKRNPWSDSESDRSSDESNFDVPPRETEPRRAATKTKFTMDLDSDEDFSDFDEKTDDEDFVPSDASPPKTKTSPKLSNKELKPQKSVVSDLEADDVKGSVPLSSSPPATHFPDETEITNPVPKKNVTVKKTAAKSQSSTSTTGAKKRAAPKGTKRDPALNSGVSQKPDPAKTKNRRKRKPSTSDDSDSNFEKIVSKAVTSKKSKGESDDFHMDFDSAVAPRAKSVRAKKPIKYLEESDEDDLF
Briefly: Decatenation assay (catenated to decatenated KDNA). Type of assay: biochemical. As to conditions: drug concentration that inhibits 50% of conversion of catenated to decatenated KDNA; read-out: topoisomerase II inhibition IC50. The method, then: Kinetoplast DNA (KDNA), human topoisomerase II (170 KDa form), and DNA Unwinding Kit including supercoiled pHOT1 DNA, relaxed DNA marker, buffers, and human topoisomerase I were purchased from TopoGEN, Inc. Agarose was purchased from Fisher. Quinobenzoxazine A-62176 (S-enantiomer) was provided by Abbott Laboratories or prepared by published procedure (Chu and Maleczka, Jr., 1987).
0.25 μg of KDNA was incubated with various concentrations of the quinobenzoxazines in a 20-μl reaction mixture containing 50 mM Tris-HCl (pH 8), 120 mM KCl, 10 mM MgCl2, and 0.5 mM each of ATP, dithiothreitol, and […] BSA for 10 min. Two units of human topoisomerase II (170 KDa form) were added to the mixture, which was then incubated at 37° C. for 30 min. The reaction was terminated with 0.1 volume of stop buffer (5% sarkosyl, 0.025% bromophenol blue, and 50% glycerol). The decatenation products were analyzed on 1% agarose gels run with 0.5 μg/ml ethidium bromide. The gels were scanned by FluoroImager and analyzed by ImageQuaNT software (Molecular Dynamics).

Here are results for one molecule from US6528517B1, “Synthesis of quinobenzoxazine analogues with topoisomerase II and quadruplex interactions for use as antineoplastic agents” (Board of Regents, The University of Texas System, priority 1998, dated 2003).

pIC50: −log10 of the molar value.

In general, pIC50 refers to the negative decadic logarithm of the IC50, by convention in mol/L.

As for `N[C@H]1CCN(c2c(F)cc3c(=O)c(C(=O)O)cn4c3c2Oc2ccccc2-4)C1` [Compound A-62176, 1-(3-aminopyrrolidin-1-yl)-2-fluoro-4-oxo-4H-quino[2,3,4-i,j][1,4]benzoxazine-5-carboxylic acid, reference compound], the DNA unwinding concn with supercoiled pHOT1 DNA is 50 µM. Further, the pIC50 at human topoisomerase II was 6.29.
